Assay results reported in US20150313922A1, “COMPOSITIONS AND METHODS FOR THE TREATMENT OF CANCERS ASSOCIATED WITH A DEFICIENCY IN THE MRE11/RAD50/NBS1 DNA DAMAGE REPAIR COMPLEX” (SLOAN-KETTERING INSTITUTE FOR CANCER RESEARCH, priority 2012, published 2015).

system: cancer cells exhibiting reduced MRN complex formation and/or functionality; test: Growth and/or survival inhibition of cancer cells with reduced MRN complex by clastogenic agents; type: cell-based; conditions: not given

Structure (SMILES) | sensitivity to growth and/or survival inhibition
O=P1(N(CCCl)CCCl)NCCCO1 (stereo not shown) [cyclophosphamide] | increased sensitivity

same assay, conditions: cancer cells with reduced MRN complex formation and/or functionality; no experiment described

Structure (SMILES) | sensitivity to growth and/or survival inhibition
COc1cccc2c1C(=O)c1c(O)c3c(c(O)c1C2=O)C[C@@](O)(C(=O)CO)C[C@@H]3O[C@H]1C[C@H](N)[C@H](O)[C@H](C)O1 [Adriamycin, doxorubicin] | do not exhibit increased sensitivity
CC[C@@]1(O)C(=O)OCc2c1cc1n(c2=O)Cc2cc3ccccc3nc2-1 [campththecin, camptothecin] | increased sensitivity
N.N.O=C([O-])C1(C(=O)[O-])CCC1.[Pt+2] [carboplatin] | increased sensitivity
N.N.[Cl][Pt][Cl] [cisplatin] | increased sensitivity
COc1cccc2c1C(=O)c1c(O)c3c(c(O)c1C2=O)C[C@@](O)(C(C)=O)C[C@@H]3O[C@H]1C[C@H](N)[C@H](O)[C@H](C)O1 [daunorubicin] | do not exhibit increased sensitivity
COc1cccc2c1C(=O)c1c(O)c3c(c(O)c1C2=O)C[C@@](O)(C(=O)CO)C[C@@H]3O[C@H]1C[C@H](N)[C@@H](O)[C@H](C)O1 [epirubicin] | do not exhibit increased sensitivity
CC(=O)[C@]1(O)Cc2c(O)c3c(c(O)c2[C@@H](O[C@H]2C[C@H](N)[C@H](O)[C@H](C)O2)C1)C(=O)c1ccccc1C3=O [idarubicin] | do not exhibit increased sensitivity
CCc1c2c(nc3ccc(OC(=O)N4CCC(N5CCCCC5)CC4)cc13)-c1cc3c(c(=O)n1C2)COC(=O)[C@]3(O)CC [irinotecan] | increased sensitivity
COS(C)(=O)=O [methymethanesulfate, methyl methanesulfonate] | increased sensitivity
CO[C@@]12[C@H](COC(N)=O)C3=C(C(=O)C(C)=C(N)C3=O)N1C[C@@H]1N[C@@H]12 [mitomycin C] | increased sensitivity
O=C1c2c(O)ccc(O)c2C(=O)c2c(NCCNCCO)ccc(NCCNCCO)c21 [mitoxantrone] | do not exhibit increased sensitivity
CC[C@@]1(O)C(=O)OCc2c1cc1n(c2=O)Cc2cc3c(CN(C)C)c(O)ccc3nc2-1 [topotecan] | increased sensitivity
CCCCC(=O)OCC(=O)[C@]1(O)Cc2c(O)c3c(c(O)c2[C@@H](O[C@H]2C[C@H](NC(=O)C(F)(F)F)[C@H](O)[C@H](C)O2)C1)C(=O)c1c(OC)cccc1C3=O [valrubicin] | do not exhibit increased sensitivity

system: murine embryonic fibroblast cells that express a low level of Mre11 (Mre11-impaired; Mre11^ATLD1/ATLD1); test: Colony formation of Mre11-impaired vs WT murine embryonic fibroblasts exposed to DNA damaging agents; type: cell-based; conditions: Mre11^ATLD1/ATLD1 vs WT murine embryonic fibroblasts; mean of triplicate samples

Structure (SMILES) | susceptibility (proportion colony formation vs. concentration) of Mre11-impaired cells as compared to WT cells
COc1cccc2c1C(=O)c1c(O)c3c(c(O)c1C2=O)C[C@@](O)(C(=O)CO)C[C@@H]3O[C@H]1C[C@H](N)[C@H](O)[C@H](C)O1 [Adriamycin, doxorubicin] | equivalent response

same assay, conditions: summary statement of the description

Structure (SMILES) | growth and/or survival inhibition of a cell having a reduced level of MRN complex formation and/or functionality
COc1cccc2c1C(=O)c1c(O)c3c(c(O)c1C2=O)C[C@@](O)(C(=O)CO)C[C@@H]3O[C@H]1C[C@H](N)[C@H](O)[C@H](C)O1 [Adriamycin, doxorubicin] | no effect
